Data set [1] relates to Human rhinovirus sp. The data set is described as follows: Antirhinoviral activity against Human Rhinovirus serotypes R1A, R1B, R2, R6, R14, R15, R21, R22, R25, R30, R41, R50, R67, R86 and R89. Format: functional.
Data set [2] has as its system Human rhinovirus sp. Briefly: Antirhinoviral activity against Human Rhinovirus serotypes R1A, R1B, R2, R6, R14, R15, R21, R22, R25, R30, R41, R50, R67, R86 and R89; Inactive against HRV-6, 14, 86. Format: functional, organism-based.
The test system of data set [3] is Human rhinovirus sp. Briefly: Antirhinoviral activity against Human Rhinovirus R2. It counts as functional.
Data set [4] concerns Human rhinovirus sp. Briefly: Antirhinoviral activity against Human Rhinovirus R21. It counts as functional.
Data set [5] concerns Human rhinovirus sp. Briefly: Antirhinoviral activity against Human Rhinovirus R22. It counts as functional.
For data set [6], the system named is Human rhinovirus sp. The data set is described as follows: Antirhinoviral activity against Human Rhinovirus R25. Format: functional.
The test system of data set [7] is Human rhinovirus sp. Briefly: Antirhinoviral activity against Human Rhinovirus R30. It counts as functional.
Data set [8] has as its system Human rhinovirus sp. Briefly: Antirhinoviral activity against Human Rhinovirus R41. Format: functional.
For data set [9], the system named is Human rhinovirus sp. The data set is described as follows: Antirhinoviral activity against Human Rhinovirus R50. It counts as functional.
For data set [10], the system named is Human rhinovirus sp. Briefly: Antirhinoviral activity against Human Rhinovirus R6. Format: functional.
Data set [11] concerns Human rhinovirus sp. The data set is described as follows: Antirhinoviral activity against Human Rhinovirus R67. Format: functional.
The subject of data set [12] is Human rhinovirus sp. The data set is described as follows: Antirhinoviral activity against Human Rhinovirus R86. Format: functional.
Data set [13] concerns Human rhinovirus sp. Briefly: Antirhinoviral activity against Human Rhinovirus R89. It counts as functional.
Data set [14] concerns Human rhinovirus sp. Briefly: Antirhinoviral activity against Human Rhinovirus R14. It counts as functional.
In data set [15] the test system is Human rhinovirus sp. The data set is described as follows: Antirhinoviral activity against Human Rhinovirus R15. Format: functional.
The subject of data set [16] is Human rhinovirus sp. The data set is described as follows: Antirhinoviral activity against Human Rhinovirus R1A. It counts as functional.
Data set [17] deals with Human rhinovirus sp. The data set is described as follows: Antirhinoviral activity against Human Rhinovirus R1B. Format: functional.
Data set [18] is described as follows: Partition coefficient (logP). Format: physicochemical. Conditions: octanol/water.
Data set [19] deals with Human rhinovirus sp. The data set is described as follows: Antirhinoviral activity against Human Rhinovirus serotypes R1A, R1B, R2, R6, R14, R15, R21, R22, R25, R30, R41, R50, R67, R86 and R89. Format: functional.
Data set [20] has as its system Human rhinovirus sp. The data set is described as follows: Antirhinoviral activity against Human Rhinovirus serotypes R1A, R1B, R2, R6, R14, R15, R21, R22, R25, R30, R41, R50, R67, R86 and R89; Inactive against HRV-86. Format: functional, organism-based.
The test system of data set [21] is Human rhinovirus sp. Briefly: Antirhinoviral activity against Human Rhinovirus R41; Not active. Format: functional, organism-based.
Data set [22] deals with Human rhinovirus sp. The data set is described as follows: Antirhinoviral activity against Human Rhinovirus R6; Not active. It counts as functional, organism-based.
Data set [23] deals with Human rhinovirus sp. The data set is described as follows: Antirhinoviral activity against Human Rhinovirus R14; Not active. Format: functional, organism-based.
Data set [24] concerns Human rhinovirus sp. The data set is described as follows: Antirhinoviral activity against Human Rhinovirus R86; Not active. Format: functional, organism-based.

Each structure is given as a SMILES string. Converted amounts (≈) assume the structure as drawn. The source made the active and inactive calls. No cut-off for these calls is given here.

The term logP denotes a log measure of how a compound divides between an organic and an aqueous phase. A low value points to lower lipophilicity.

Turning to `Cc1ccc(CCCOc2c(C)cc(-c3nnn(C)n3)cc2C)cn1`, in the data set with Human rhinovirus sp. [1], the Mean activity was determined as 0.54 µM.
For the compound `Cc1cc(-c2nnn(C)n2)cc(C)c1OCCCc1cccnc1`, the Mean activity result with Human rhinovirus sp. [2] is “inactive”.
In the case of `Cc1cc(-c2nnn(C)n2)cc(C)c1OCCCCCc1cccnc1`, the MIC worked out at 0.2 µM (≈ 0.0703 µg/mL) against Human rhinovirus sp. [3]; 0.03 µM (≈ 0.0105 µg/mL) against Human rhinovirus sp. [4]; 0.17 µM (≈ 0.0597 µg/mL) in the data set on Human rhinovirus sp. [5]; 0.04 µM (≈ 0.0141 µg/mL) with Human rhinovirus sp. [6]; 0.17 µM (≈ 0.0597 µg/mL) against Human rhinovirus sp. [7]; 2.16 µM (≈ 0.759 µg/mL) in the data set with Human rhinovirus sp. [8]. Besides, the MIC stood at 2.28 µM (≈ 0.801 µg/mL) with Human rhinovirus sp. [9]; 0.82 µM (≈ 0.288 µg/mL) against Human rhinovirus sp. [10]; 0.37 µM (≈ 0.13 µg/mL) against Human rhinovirus sp. [11]; 1.08 µM (≈ 0.38 µg/mL) with Human rhinovirus sp. [12]; 0.03 µM (≈ 0.0105 µg/mL) with Human rhinovirus sp. [13]; 1.05 µM (≈ 0.369 µg/mL) with Human rhinovirus sp. [14]. In addition, the values for the MIC against Human rhinovirus sp. [15], against Human rhinovirus sp. [16] and with Human rhinovirus sp. [17] were 1.25 µM (≈ 0.439 µg/mL), 0.28 µM (≈ 0.0984 µg/mL) and 0.1 µM (≈ 0.0351 µg/mL), respectively.
For the compound `Cc1cc(CCCOc2c(C)cc(-c3nnn(C)n3)cc2C)on1`, the Mean activity in the data set on Human rhinovirus sp. [1] is 0.73 µM.
Turning to `Cc1cc(CCCCCOc2c(C)cc(-c3nnn(C)n3)cc2C)on1`, the MIC in the data set with Human rhinovirus sp. [3] came to 0.04 µM (≈ 0.0142 µg/mL); against Human rhinovirus sp. [4], 0.04 µM (≈ 0.0142 µg/mL); in the data set on Human rhinovirus sp. [5] it was 0.08 µM (≈ 0.0284 µg/mL); in the data set with Human rhinovirus sp. [6], 0.31 µM (≈ 0.11 µg/mL); against Human rhinovirus sp. [7] it was 0.11 µM (≈ 0.0391 µg/mL); against Human rhinovirus sp. [8] it was 1.43 µM (≈ 0.508 µg/mL). Further, the MIC with Human rhinovirus sp. [9] was 0.23 µM (≈ 0.0818 µg/mL); against Human rhinovirus sp. [10], 0.98 µM (≈ 0.348 µg/mL); with Human rhinovirus sp. [11] it was 0.35 µM (≈ 0.124 µg/mL); against Human rhinovirus sp. [12], 0.84 µM (≈ 0.299 µg/mL); in the data set with Human rhinovirus sp. [13] it was 0.04 µM (≈ 0.0142 µg/mL); against Human rhinovirus sp. [14] it was 0.62 µM (≈ 0.22 µg/mL). Moreover, the MIC against Human rhinovirus sp. [15] was 0.77 µM (≈ 0.274 µg/mL); against Human rhinovirus sp. [16], 0.42 µM (≈ 0.149 µg/mL); in the data set on Human rhinovirus sp. [17], 0.1 µM (≈ 0.0355 µg/mL).
For `Cc1cc(CCCOc2c(C)cc(-c3nc(C)no3)cc2C)on1`, the logP in [18] worked out at 3.2. In the data set on Human rhinovirus sp. [19], the Mean activity was 0.22 µM.
For `Cc1ccc(CCCOc2c(C)cc(-c3nc(C)no3)cc2C)cn1`, the logP in data set [18] was 3.8. Moreover, the Mean activity in the data set on Human rhinovirus sp. [1] came out at 0.25 µM.
For `Cc1noc(-c2cc(C)c(OCCCc3cccnc3)c(C)c2)n1`, in data set [18], the logP was 3.3. Also, the Mean activity result in the data set on Human rhinovirus sp. [20] was “inactive”.
In the case of `Cc1cc(-c2nnn(C)n2)cc(C)c1OCCCCCc1ccncc1`, the MIC came out at 0.26 µM (≈ 0.0914 µg/mL) with Human rhinovirus sp. [3]; 0.08 µM (≈ 0.0281 µg/mL) against Human rhinovirus sp. [4]; 0.2 µM (≈ 0.0703 µg/mL) in the data set with Human rhinovirus sp. [5]; 0.11 µM (≈ 0.0387 µg/mL) against Human rhinovirus sp. [6]; 0.36 µM (≈ 0.127 µg/mL) against Human rhinovirus sp. [7]; 0.36 µM (≈ 0.127 µg/mL) in the data set with Human rhinovirus sp. [9]. In addition, the MIC stood at 0.51 µM (≈ 0.179 µg/mL) in the data set with Human rhinovirus sp. [11]; 0.43 µM (≈ 0.151 µg/mL) against Human rhinovirus sp. [12]; 0.07 µM (≈ 0.0246 µg/mL) against Human rhinovirus sp. [13]; 2.13 µM (≈ 0.749 µg/mL) against Human rhinovirus sp. [15]; 0.68 µM (≈ 0.239 µg/mL) with Human rhinovirus sp. [16]; 0.27 µM (≈ 0.0949 µg/mL) with Human rhinovirus sp. [17]. The MIC entry in the data set on Human rhinovirus sp. [21], in the data set with Human rhinovirus sp. [22] and in the data set with Human rhinovirus sp. [23] was “inactive” in each case.
For the compound `Cc1cc(-c2nnn(C)n2)cc(C)c1OCCCCCc1ccccn1`, the MIC against Human rhinovirus sp. [3] was found to be 0.34 µM (≈ 0.119 µg/mL); in the data set with Human rhinovirus sp. [4] it was 0.05 µM (≈ 0.0176 µg/mL); with Human rhinovirus sp. [5], 0.21 µM (≈ 0.0738 µg/mL); in the data set on Human rhinovirus sp. [6], 0.08 µM (≈ 0.0281 µg/mL); against Human rhinovirus sp. [7], 0.25 µM (≈ 0.0879 µg/mL); against Human rhinovirus sp. [9], 0.36 µM (≈ 0.127 µg/mL). For the same compound, the MIC in the data set with Human rhinovirus sp. [11] was determined as 1.19 µM (≈ 0.418 µg/mL); against Human rhinovirus sp. [13] it was 0.06 µM (≈ 0.0211 µg/mL); against Human rhinovirus sp. [14], 3.84 µM (≈ 1.35 µg/mL); against Human rhinovirus sp. [15], 1.91 µM (≈ 0.671 µg/mL); in the data set with Human rhinovirus sp. [16], 0.66 µM (≈ 0.232 µg/mL); in the data set with Human rhinovirus sp. [17] it was 0.11 µM (≈ 0.0387 µg/mL). For the same compound, the MIC entry in the data set with Human rhinovirus sp. [21], with Human rhinovirus sp. [22] and in the data set with Human rhinovirus sp. [24] was “inactive” throughout.

The values are drawn from ChEMBL document CHEMBL1153668, “3-Pyridines as replacements for an isoxazole ring: The antirhinoviral activity of pyridine analogues related to disoxaril” (Bioorg Med Chem Lett, 1995).
